Measured values published in US20240277658A1, “NLRP3 ACTIVATORS FOR USE IN THE TREATMENT OF INFECTIOUS DISEASES OR CANCER BY ACTIVATING NLRP3 INFLAMMASOME” (ALBERT-LUDWIGS-UNIVERSITÄT FREIBURG, priority 2020, published 2024).
Where “and” joins values, the source holds several entries; their conditions need not be identical. Equal entries are not always repeated. Where two headings read alike, the source gives them in different places. Values belong to the compound of their own block, whether it stands above or below them.

What was measured:
[1] = test system: BMDCs; test: LDH release (lytic cell death, pyroptosis) from LPS-primed BMDCs; assay type: cell-based, mouse; details: for Average (% positive control): LDH release; for cytotoxicity at 50 µM / cytotoxicity at 25 µM / cytotoxicity at 100 µM / cytotoxicity at 75 µM: Mus musculus, BMDC
Summary of the method: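 LDH released into medium, detected colorimetrically, served as the pyroptosis read-out in triplicate. LPS-primed (50 ng ml^−1, 3 h) murine bone marrow-derived dendritic cells received test compounds, typically 50 μM, or nigericin (5 μM), R837 or CL097 (100 μM) for 3 hours.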

[2] = target: T1, NLRP3 inflammasome (Mus musculus, UniProt Q8R4B8); test: IL-1β release from LPS-primed BMDCs (ELISA) as readout of NLRP3 inflammasome activation; assay type: cell-based
T1 construct: endogenous in cells; host or cells: primary mouse bone marrow-derived dendritic cells (BMDCs), LPS-primed
T1 sequence (Q8R4B8 whole entry): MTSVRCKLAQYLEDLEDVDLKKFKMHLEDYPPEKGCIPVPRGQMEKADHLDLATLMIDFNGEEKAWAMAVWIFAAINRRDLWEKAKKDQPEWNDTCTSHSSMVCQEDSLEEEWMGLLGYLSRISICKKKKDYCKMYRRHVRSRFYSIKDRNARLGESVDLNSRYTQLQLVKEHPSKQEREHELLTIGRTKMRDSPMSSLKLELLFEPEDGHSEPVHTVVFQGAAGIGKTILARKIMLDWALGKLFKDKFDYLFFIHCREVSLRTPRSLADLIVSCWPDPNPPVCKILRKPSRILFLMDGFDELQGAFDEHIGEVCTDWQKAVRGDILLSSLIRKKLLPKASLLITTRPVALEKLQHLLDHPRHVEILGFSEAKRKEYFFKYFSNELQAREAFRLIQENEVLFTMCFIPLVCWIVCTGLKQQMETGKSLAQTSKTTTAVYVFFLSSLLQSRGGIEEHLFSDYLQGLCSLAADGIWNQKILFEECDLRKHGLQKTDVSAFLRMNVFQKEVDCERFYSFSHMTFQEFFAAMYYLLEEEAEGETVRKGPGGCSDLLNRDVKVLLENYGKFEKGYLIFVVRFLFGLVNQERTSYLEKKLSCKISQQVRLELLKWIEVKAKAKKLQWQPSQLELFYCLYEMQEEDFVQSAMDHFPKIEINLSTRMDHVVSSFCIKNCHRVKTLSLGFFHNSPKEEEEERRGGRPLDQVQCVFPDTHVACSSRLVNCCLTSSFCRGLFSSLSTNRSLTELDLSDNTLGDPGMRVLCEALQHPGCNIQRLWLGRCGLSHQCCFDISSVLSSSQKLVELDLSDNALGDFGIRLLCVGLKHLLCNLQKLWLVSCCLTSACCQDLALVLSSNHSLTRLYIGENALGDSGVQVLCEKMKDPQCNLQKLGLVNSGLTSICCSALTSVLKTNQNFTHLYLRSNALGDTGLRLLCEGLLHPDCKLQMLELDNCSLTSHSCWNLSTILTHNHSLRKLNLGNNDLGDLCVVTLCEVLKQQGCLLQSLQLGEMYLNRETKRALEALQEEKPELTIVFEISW
Summary of the method: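 NLRP3 inflammasome activation was read out as IL-1β released into the supernatant, measured by ELISA. Murine BMDCs were primed with LPS (50 ng ml^−1, 3 hours), then incubated with compounds for 3 hours, with each condition run in three technical replicates. Nigericin at 5 μM acted as the positive control activator, and IL-1β release was also expressed as a percentage of that control.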

[3] = compound 50 μM, positive control nigericin 5 μM
[4] = compound 50 μM, LPS-primed BMDCs, read-out: Average LDH release (% of max.)
[5] = single replicates, compound 50 μM, LPS-primed BMDCs, read-out: LDH release (% of max.)
[6] = IL-1β release, compound 50 μM, positive control nigericin 5 μM
[7] = compound 50 μM, LPS-primed BMDCs
[8] = single replicates, compound 50 μM, LPS-primed BMDCs

SMILES: O=C(Nc1ccccc1)Nc1cccc(NC(=O)C2CCCC2)c1 [L01.103, N-{3-[(phenylcarbamo-yl)amino]phenyl}cyclo-pentanecarboxamide]
- Average (% positive control) [1, 3]: 10.791 % positive control
- cytotoxicity at 50 µM [1, 4]: 7.89%
- cytotoxicity at 50 µM [1, 5]: 6.58%
- Average (% positive control) [2, 6]: 1.624 % positive control
- Average IL-1β [2, 7]: 0.116 ng/mL
- IL-1β [2, 8]: 0.060 ng/mL and 0.049 ng/mL and 0.240 ng/mL

SMILES: O=C(Nc1ccccc1)Nc1ccc2c(c1)CCC2 [L01.066, 3-(2,3-dihydro-1H-inden-5-yl)-1-phenyl-urea]
- Average (% positive control) [1, 3]: 19.592 % positive control
- cytotoxicity at 50 µM [1, 4]: 14.3%
- cytotoxicity at 50 µM [1, 5]: 15.6%
- Average (% positive control) [2, 6]: 3.698 % positive control
- Average IL-1β [2, 7]: 0.265 ng/mL
- IL-1β [2, 8]: 0.346 ng/mL and 0.256 ng/mL and 0.193 ng/mL

SMILES: O=C(NCCCc1ccccc1)Nc1ccc2ncccc2c1 [EN11-13, 1-(3-phenylpropyl)-3-(quinolin-6-yl)urea]
- Average (% positive control) ([1]; 25 μM, positive control EN22 25 μM): 15.011 % positive control
- Average (% positive control) ([1]; 50 μM, positive control EN22 25 μM): 20.209 % positive control
- Average (% positive control) ([1]; 100 μM, positive control EN22 25 μM): 31.963 % positive control
- cytotoxicity at 25 µM ([1]; 25 μM, EN11 series table, read-out: Average LDH release (% of max.)): 7.63%
- cytotoxicity at 25 µM ([1]; 25 μM, individual replicate values, EN11 series table, read-out: LDH release (% of max.)): 7.55%
- cytotoxicity at 50 µM ([1]; 50 μM, EN11 series table, read-out: Average LDH release (% of max.)): 10.3%
- cytotoxicity at 50 µM ([1]; 50 μM, individual replicate values, EN11 series table, read-out: LDH release (% of max.)): 10.4%
- cytotoxicity at 100 µM ([1]; 100 μM, individual replicate values, read-out: LDH release (% of max.)): 19.3%
- cytotoxicity at 100 µM ([1]; 100 μM, read-out: Average LDH release (% of max.)): 16.3%
- Average IL-1β ([2]; 25 μM, EN11 series table): 0.011 ng/mL
- IL-1β ([2]; 25 μM, individual replicate values, EN11 series table): 0.000 ng/mL and 0.011 ng/mL and 0.023 ng/mL
- Average IL-1β ([2]; 50 μM, EN11 series table): 0.067 ng/mL
- IL-1β ([2]; 50 μM, individual replicate values, EN11 series table): 0.067 ng/mL
- Average IL-1β ([2]; 100 μM): 0.297 ng/mL
- IL-1β ([2]; 100 μM, individual replicate values): 0.243 ng/mL and 0.331 ng/mL and 0.316 ng/mL
- Average (% positive control) ([2]; IL-1β, 25 μM, positive control EN22 25 μM): 0.764 % positive control
- Average (% positive control) ([2]; IL-1β, 50 μM, positive control EN22 25 μM): 4.560 % positive control
- Average (% positive control) ([2]; IL-1β, 100 μM, positive control EN22 25 μM): 20.130 % positive control

SMILES: O=[N+]([O-])c1ccc(NC(=S)Nc2cccc(Cl)c2)c(Cl)c1 [AH2, 1-(2-chloro-4-nitrophenyl)-3-(3-chlorophenyl) thiourea]
- Average (% positive control) ([1]; 25 μM, positive control EN22 10 μM): 29.680 % positive control
- Average (% positive control) ([1]; 50 μM, positive control EN22 10 μM): 28.819 % positive control
- Average (% positive control) ([1]; 75 μM, positive control EN22 10 μM): 33.532 % positive control
- cytotoxicity at 25 µM ([1]; 25 μM, AH series table, read-out: Average LDH release (% of max.)): 22.8%
- cytotoxicity at 25 µM ([1]; 25 μM, individual replicate values, AH series table, read-out: LDH release (% of max.)): 23.9%
- cytotoxicity at 50 µM ([1]; 50 μM, AH series table, read-out: Average LDH release (% of max.)): 22.1%
- cytotoxicity at 50 µM ([1]; 50 μM, individual replicate values, AH series table, read-out: LDH release (% of max.)): 22.8%
- cytotoxicity at 75 µM ([1]; 75 μM, individual replicate values, read-out: LDH release (% of max.)): 25.1%
- cytotoxicity at 75 µM ([1]; 75 μM, read-out: Average LDH release (% of max.)): 25.8%
- Average IL-1β ([2]; 25 μM, AH series table): 0.194 ng/mL and 0.251 ng/mL
- IL-1β ([2]; 25 μM, individual replicate values, AH series table): 0.197 ng/mL and 0.186 ng/mL and 0.200 ng/mL and 0.280 ng/mL and 0.232 ng/mL and 0.243 ng/mL
- Average IL-1β ([2]; 75 μM, AH series table): 0.187 ng/mL
- IL-1β ([2]; 75 μM, individual replicate values, AH series table): 0.176 ng/ml and 0.193 ng/ml (2×)
- Average (% positive control) ([2]; IL-1β, 25 μM, positive control EN22 10 μM): 1.942 % positive control and 2.514 % positive control
- Average (% positive control) ([2]; IL-1β, 75 μM, positive control EN22 10 μM): 1.872 % positive control

Now from value to compound, other results behind:

- Average (% positive control) [2, 6]: 0.955 % positive control
- Average IL-1β [2, 7]: 0.068 ng/mL
SMILES: N#Cc1ccc(NC(=O)NC(CO)c2nc(-c3ccccc3)no2)cc1 (stereo not drawn) [L01.112, 1-(4-cyanophenyl)-3-[2-hydroxy-1-(3-phenyl-1,2,4-oxadiazol-5-yl)-ethyl]urea]
- Average (% positive control) [1, 3]: 10.010 % positive control
- cytotoxicity at 50 µM [1, 4]: 7.32%
- cytotoxicity at 50 µM [1, 5]: 7.96%
- IL-1β [2, 8]: 0.075 ng/mL and 0.069 ng/mL and 0.061 ng/mL

- Average (% positive control) [2, 6]: 0.866 % positive control
- Average IL-1β [2, 7]: 0.062 ng/mL
SMILES: Cc1ccc(NC(=O)NCc2nc(Cc3ccccc3)no2)cc1 [L01.088, 3-[(3-benzyl-1,2,4-oxadiazol-5-yl)methyl]-1-(4-methylphenyl)urea]
- Average (% positive control) [1, 3]: 7.174 % positive control
- cytotoxicity at 50 µM [1, 4]: 5.25%
- cytotoxicity at 50 µM [1, 5]: 5.68%
- IL-1β [2, 8]: 0.069 ng/mL and 0.058 ng/mL and 0.059 ng/mL

- Average (% positive control) [2, 6]: 1.956 % positive control
- Average IL-1β [2, 7]: 0.140 ng/mL
SMILES: N#Cc1ccc(NC(=O)Nc2ccccc2)cc1 [L01.038, 1-(4-cyanophenyl)-3-phenylurea]
- Average (% positive control) [1, 3]: 16.337 % positive control
- cytotoxicity at 50 µM [1, 4]: 12%
- cytotoxicity at 50 µM [1, 5]: 12.8%
- IL-1β [2, 8]: 0.166 ng/mL and 0.127 ng/mL and 0.128 ng/mL
